# Paper PMC4076210, “Discovery of Novel AKT Inhibitors with Enhanced Anti-Tumor Effects in Combination with the MEK Inhibitor” (PLoS ONE, 2014)
# Like-named read-outs stand apart in the source and are kept apart here.
# How the values were obtained:
# Type in all cases: biochemical
# GRK7(h) = molecular target: T1, GRK7(h) (Homo sapiens, UniProt Q8WTQ7); test: Kinase panel
# T1 construct: purchased Millipore KinaseProfiler
# T1 sequence (Q8WTQ7 1-553): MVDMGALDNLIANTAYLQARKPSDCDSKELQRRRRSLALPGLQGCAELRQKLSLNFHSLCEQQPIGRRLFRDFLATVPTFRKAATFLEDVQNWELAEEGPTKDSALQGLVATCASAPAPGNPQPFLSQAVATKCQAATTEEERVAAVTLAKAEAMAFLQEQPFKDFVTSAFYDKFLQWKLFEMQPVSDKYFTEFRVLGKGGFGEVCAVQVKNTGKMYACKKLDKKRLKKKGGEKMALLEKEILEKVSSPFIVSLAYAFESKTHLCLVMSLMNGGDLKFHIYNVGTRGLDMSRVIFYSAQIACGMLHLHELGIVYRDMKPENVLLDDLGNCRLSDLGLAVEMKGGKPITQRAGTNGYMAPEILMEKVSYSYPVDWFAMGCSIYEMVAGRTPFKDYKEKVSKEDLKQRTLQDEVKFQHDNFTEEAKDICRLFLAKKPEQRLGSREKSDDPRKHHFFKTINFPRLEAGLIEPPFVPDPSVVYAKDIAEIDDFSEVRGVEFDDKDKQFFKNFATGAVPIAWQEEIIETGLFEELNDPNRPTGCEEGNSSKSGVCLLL
# LIMK1(h) = molecular target: T2, LIMK1(h) (Homo sapiens, UniProt P53667); test: Kinase panel
# T2 construct: purchased Millipore KinaseProfiler
# CDK7/cyclinH/MAT1(h) = molecular target: T3, CDK7/cyclinH/MAT1(h) (Homo sapiens, UniProt P50613); test: Kinase panel
# T3 construct: purchased Millipore KinaseProfiler
# CDK5/p35(h) = molecular target: T4, CDK5/p35(h) (Homo sapiens, UniProt Q00535); test: Kinase panel
# T4 construct: purchased Millipore KinaseProfiler
# CK1γ3(h) = molecular target: T5, CK1γ3(h) (Homo sapiens, UniProt Q9Y6M4); test: Kinase panel
# T5 construct: purchased Millipore KinaseProfiler
# SIK(h) = molecular target: T6, SIK(h) (Homo sapiens, UniProt P57059); test: Kinase panel
# T6 construct: purchased Millipore KinaseProfiler
# JAK3(h) = molecular target: T7, JAK3(h) (Homo sapiens, UniProt P52333); test: Kinase panel
# T7 construct: purchased Millipore KinaseProfiler
# T7 sequence (P52333 1-1124): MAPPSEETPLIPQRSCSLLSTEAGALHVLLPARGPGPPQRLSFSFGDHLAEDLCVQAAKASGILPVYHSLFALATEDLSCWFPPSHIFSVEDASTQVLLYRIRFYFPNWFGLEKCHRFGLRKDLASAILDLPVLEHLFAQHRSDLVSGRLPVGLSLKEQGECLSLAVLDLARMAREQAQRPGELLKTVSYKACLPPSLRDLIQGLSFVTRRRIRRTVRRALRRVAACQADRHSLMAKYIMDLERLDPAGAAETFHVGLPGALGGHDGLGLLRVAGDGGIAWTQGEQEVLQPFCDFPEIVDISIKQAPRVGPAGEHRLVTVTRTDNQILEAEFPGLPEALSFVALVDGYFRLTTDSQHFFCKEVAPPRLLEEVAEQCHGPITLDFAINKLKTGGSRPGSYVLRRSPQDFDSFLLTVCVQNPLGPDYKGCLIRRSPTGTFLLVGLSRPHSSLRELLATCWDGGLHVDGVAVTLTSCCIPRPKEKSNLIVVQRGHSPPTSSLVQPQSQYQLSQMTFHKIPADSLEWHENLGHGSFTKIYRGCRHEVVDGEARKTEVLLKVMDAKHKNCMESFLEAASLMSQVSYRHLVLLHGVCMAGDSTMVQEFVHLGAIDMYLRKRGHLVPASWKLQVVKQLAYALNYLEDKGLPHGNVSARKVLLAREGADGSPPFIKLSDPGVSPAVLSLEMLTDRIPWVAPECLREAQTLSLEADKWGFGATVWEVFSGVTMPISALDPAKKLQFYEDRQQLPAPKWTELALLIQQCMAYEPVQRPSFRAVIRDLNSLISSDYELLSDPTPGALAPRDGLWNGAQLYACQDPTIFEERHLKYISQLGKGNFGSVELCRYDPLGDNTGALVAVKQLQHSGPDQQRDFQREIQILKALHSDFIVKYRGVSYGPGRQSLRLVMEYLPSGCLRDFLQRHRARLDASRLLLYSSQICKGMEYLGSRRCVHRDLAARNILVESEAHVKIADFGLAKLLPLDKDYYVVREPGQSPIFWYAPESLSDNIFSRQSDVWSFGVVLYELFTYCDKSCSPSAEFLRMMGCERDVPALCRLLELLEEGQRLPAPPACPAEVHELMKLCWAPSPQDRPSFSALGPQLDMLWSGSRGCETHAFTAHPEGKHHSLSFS
# JAK2(h) = molecular target: T8, JAK2(h) (Homo sapiens, UniProt O60674); test: Kinase panel
# T8 construct: purchased Millipore KinaseProfiler
# PKCα = PKCα (Homo sapiens, UniProt P17252); test: Kinase IC50 assay
# CaMKIIγ(h) = molecular target: T9, CaMKIIγ(h) (Homo sapiens, UniProt Q13555); test: Kinase panel
# T9 construct: purchased Millipore KinaseProfiler
# CaMKIδ(h) = molecular target: T10, CaMKIδ(h) (Homo sapiens, UniProt Q8IU85); test: Kinase panel
# T10 construct: purchased Millipore KinaseProfiler
# Ret (V804L)(h) = molecular target: T11, Ret (V804L)(h) (Homo sapiens, UniProt P07949, V804L); test: Kinase panel
# T11 construct: purchased Millipore KinaseProfiler
# PRK2(h) = molecular target: T12, PRK2(h) (Homo sapiens, UniProt Q16513); test: Kinase panel
# T12 construct: purchased Millipore KinaseProfiler
# SGK2(h) = molecular target: T13, SGK2(h) (Homo sapiens, UniProt Q9HBY8); test: Kinase panel
# T13 construct: purchased Millipore KinaseProfiler
# T13 sequence (Q9HBY8 1-367): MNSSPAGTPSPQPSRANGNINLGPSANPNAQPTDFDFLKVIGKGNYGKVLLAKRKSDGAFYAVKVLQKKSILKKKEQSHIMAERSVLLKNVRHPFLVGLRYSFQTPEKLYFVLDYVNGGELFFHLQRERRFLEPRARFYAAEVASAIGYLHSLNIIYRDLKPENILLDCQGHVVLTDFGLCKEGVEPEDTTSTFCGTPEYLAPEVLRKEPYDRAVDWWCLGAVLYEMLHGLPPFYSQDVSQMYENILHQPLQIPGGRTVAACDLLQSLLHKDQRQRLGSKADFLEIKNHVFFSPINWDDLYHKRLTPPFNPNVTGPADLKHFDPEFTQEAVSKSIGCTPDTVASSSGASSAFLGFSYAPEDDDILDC
# T4 sequence (Q00535 whole entry): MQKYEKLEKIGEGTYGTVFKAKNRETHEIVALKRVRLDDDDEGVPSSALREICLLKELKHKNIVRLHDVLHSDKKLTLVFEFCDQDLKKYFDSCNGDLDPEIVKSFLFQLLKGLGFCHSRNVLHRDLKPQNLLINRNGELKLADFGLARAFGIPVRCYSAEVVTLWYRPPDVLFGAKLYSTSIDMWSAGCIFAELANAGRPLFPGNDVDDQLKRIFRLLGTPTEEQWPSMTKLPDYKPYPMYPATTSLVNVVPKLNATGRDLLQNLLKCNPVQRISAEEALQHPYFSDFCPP
# T4 sequence (Q15078 whole entry partner): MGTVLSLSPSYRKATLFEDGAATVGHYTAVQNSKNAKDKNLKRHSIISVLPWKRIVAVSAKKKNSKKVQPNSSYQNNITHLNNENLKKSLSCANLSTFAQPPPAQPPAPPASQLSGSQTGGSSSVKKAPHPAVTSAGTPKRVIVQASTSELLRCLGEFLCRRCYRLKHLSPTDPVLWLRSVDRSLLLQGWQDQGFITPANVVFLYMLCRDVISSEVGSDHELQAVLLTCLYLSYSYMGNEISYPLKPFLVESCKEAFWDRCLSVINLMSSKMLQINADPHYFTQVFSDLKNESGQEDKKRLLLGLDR
# T3 sequence (P50613 whole entry): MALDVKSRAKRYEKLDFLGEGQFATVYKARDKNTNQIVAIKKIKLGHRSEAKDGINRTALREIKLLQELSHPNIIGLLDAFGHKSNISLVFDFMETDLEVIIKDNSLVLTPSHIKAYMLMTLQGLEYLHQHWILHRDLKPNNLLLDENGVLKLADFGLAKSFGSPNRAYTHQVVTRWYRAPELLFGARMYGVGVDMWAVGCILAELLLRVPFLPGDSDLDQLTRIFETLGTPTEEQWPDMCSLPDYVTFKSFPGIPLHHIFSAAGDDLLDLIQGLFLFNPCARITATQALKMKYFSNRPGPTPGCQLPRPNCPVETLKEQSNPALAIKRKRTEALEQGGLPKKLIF
# T3 sequence (P51946 whole entry partner): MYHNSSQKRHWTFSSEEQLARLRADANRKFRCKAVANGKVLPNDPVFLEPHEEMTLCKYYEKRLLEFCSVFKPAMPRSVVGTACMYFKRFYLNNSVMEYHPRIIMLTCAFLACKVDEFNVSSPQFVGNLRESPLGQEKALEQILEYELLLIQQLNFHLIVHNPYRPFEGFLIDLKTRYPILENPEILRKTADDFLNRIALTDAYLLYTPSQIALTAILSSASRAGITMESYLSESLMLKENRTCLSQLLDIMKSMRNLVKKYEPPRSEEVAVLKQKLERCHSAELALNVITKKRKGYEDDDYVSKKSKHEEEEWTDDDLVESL
# T3 sequence (P51948 whole entry partner): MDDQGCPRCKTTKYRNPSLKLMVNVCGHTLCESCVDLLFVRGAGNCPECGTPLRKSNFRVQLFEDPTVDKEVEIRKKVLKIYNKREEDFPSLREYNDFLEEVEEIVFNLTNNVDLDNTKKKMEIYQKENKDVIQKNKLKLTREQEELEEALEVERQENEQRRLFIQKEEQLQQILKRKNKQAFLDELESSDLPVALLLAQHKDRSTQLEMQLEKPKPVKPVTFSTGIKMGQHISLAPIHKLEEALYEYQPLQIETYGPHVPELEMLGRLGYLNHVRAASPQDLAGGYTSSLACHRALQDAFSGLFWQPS
# T11 sequence (P07949 29-1114 V804L): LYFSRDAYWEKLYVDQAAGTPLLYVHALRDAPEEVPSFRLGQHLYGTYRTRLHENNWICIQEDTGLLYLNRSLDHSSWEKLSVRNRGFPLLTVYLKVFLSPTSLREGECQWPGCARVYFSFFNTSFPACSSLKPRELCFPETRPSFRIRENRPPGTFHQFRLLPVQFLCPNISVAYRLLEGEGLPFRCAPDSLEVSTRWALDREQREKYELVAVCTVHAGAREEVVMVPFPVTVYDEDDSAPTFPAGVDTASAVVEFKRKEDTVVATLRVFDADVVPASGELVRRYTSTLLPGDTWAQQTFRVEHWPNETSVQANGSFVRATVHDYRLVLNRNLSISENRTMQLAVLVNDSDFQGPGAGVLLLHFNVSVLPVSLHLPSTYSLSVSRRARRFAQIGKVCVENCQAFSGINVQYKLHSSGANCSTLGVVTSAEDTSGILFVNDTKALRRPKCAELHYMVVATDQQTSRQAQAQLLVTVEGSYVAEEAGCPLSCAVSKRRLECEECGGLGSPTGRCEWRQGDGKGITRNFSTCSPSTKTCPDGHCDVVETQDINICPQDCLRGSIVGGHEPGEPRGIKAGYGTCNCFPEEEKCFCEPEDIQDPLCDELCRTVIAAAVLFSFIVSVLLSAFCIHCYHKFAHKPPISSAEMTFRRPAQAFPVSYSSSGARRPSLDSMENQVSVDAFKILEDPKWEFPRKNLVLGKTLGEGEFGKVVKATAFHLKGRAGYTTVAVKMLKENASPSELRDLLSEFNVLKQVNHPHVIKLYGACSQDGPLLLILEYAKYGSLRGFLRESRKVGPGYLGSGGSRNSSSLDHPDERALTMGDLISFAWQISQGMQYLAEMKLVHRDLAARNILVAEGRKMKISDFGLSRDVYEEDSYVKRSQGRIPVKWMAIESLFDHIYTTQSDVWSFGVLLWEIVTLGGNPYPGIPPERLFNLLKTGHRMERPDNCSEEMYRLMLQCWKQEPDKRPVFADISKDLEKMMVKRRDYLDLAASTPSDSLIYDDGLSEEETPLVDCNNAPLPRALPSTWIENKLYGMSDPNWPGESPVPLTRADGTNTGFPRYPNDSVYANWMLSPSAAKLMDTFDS
# T5 sequence (Q9Y6M4 whole entry): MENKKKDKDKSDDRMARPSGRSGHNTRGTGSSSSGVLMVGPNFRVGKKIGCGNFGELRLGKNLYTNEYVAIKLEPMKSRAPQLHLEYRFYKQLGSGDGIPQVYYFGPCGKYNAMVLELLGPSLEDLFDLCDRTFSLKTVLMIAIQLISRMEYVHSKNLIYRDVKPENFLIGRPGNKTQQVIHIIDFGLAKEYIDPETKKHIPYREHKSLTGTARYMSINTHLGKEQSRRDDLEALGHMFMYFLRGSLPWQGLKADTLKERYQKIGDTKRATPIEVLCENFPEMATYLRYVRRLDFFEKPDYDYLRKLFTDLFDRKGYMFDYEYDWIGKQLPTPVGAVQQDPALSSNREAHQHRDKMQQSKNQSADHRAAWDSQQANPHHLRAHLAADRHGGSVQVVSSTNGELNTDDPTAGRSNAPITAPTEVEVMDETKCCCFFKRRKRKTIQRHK
# T2 sequence (P53667 whole entry): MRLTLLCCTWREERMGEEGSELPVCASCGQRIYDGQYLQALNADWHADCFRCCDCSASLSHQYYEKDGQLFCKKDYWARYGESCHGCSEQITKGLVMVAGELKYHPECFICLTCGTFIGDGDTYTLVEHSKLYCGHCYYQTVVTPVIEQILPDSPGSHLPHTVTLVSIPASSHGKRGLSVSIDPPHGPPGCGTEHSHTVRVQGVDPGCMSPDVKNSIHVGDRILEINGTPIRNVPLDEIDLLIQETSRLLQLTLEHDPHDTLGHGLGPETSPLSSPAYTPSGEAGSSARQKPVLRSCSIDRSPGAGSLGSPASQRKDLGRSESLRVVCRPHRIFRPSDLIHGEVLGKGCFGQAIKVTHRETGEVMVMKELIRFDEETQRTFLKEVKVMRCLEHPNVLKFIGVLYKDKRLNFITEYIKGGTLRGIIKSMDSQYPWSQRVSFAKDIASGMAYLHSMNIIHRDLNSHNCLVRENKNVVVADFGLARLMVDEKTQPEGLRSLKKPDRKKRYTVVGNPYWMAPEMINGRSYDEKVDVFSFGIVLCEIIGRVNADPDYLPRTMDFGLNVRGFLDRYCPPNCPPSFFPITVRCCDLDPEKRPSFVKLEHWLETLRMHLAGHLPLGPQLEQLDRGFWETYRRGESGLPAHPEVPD
# T9 sequence (Q13555 whole entry): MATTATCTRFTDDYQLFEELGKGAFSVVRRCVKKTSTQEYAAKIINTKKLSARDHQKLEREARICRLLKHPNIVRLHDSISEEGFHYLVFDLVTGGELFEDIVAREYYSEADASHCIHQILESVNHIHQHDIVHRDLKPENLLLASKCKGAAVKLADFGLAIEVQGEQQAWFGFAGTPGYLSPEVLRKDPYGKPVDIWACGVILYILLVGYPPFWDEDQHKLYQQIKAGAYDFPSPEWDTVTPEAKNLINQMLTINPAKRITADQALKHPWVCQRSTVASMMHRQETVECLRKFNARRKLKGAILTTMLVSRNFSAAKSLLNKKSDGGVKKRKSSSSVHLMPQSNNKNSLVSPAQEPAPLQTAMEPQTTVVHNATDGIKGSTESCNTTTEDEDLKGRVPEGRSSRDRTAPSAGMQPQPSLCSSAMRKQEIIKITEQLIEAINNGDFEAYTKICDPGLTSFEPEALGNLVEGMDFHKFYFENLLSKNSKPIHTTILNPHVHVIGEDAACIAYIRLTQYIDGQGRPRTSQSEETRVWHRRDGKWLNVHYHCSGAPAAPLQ
# T10 sequence (Q8IU85 whole entry): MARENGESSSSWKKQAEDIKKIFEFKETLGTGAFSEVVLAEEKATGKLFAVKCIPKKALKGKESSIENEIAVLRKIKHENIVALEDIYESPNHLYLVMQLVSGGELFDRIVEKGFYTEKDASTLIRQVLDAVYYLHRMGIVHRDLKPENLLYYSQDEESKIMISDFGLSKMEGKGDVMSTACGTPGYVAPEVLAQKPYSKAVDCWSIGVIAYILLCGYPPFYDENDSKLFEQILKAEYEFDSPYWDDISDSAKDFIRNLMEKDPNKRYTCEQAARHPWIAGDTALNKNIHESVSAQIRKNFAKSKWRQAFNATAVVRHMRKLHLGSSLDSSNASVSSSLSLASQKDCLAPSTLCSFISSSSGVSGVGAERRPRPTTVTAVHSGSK
compound,measurement,setting,value
Cn1ncc(Cl)c1-c1cc(C(=O)N[C@H](CN)Cc2cccc(F)c2)sc1Cl [GSK2110183],inhibition at 0.5 µM,GRK7(h),64%
same,inhibition at 10 µM,GRK7(h),96%
same,inhibition at 0.5 µM,LIMK1(h),21%
same,inhibition at 10 µM,LIMK1(h),25%
same,inhibition at 0.5 µM,CDK7/cyclinH/MAT1(h),62%
same,inhibition at 10 µM,CDK7/cyclinH/MAT1(h),96%
same,inhibition at 0.5 µM,CDK5/p35(h),-10%
same,inhibition at 10 µM,CDK5/p35(h),17%
same,inhibition at 0.5 µM,CK1γ3(h),7%
same,inhibition at 10 µM,CK1γ3(h),28%
same,inhibition at 0.5 µM,SIK(h),-6%
same,inhibition at 10 µM,SIK(h),16%
same,inhibition at 0.5 µM,JAK3(h),6%
same,inhibition at 10 µM,JAK3(h),-3%
same,inhibition at 0.5 µM,JAK2(h),-31%
same,inhibition at 10 µM,JAK2(h),-55%
same,IC50,PKCα,> 1000 nM
same,inhibition at 0.5 µM,CaMKIIγ(h),39%
same,inhibition at 10 µM,CaMKIIγ(h),89%
same,inhibition at 0.5 µM,CaMKIδ(h),18%
same,inhibition at 10 µM,CaMKIδ(h),78%
same,inhibition at 0.5 µM,Ret (V804L)(h),-5%
same,inhibition at 10 µM,Ret (V804L)(h),16%
same,inhibition at 0.5 µM,PRK2(h),71%
same,inhibition at 10 µM,PRK2(h),99%
same,inhibition at 0.5 µM,SGK2(h),51%
same,inhibition at 10 µM,SGK2(h),95%
Cn1ncc(Cl)c1-c1cc(C(=O)N[C@H](CN)Cc2ccc(F)c(F)c2)oc1Cl [GSK2141795],inhibition at 0.5 µM,"GRK7(h); 0.5 µM, read-out: % Inhibition",42%
same,inhibition at 10 µM,"GRK7(h); 10 µM, read-out: % Inhibition",76%
same,inhibition at 0.5 µM,"LIMK1(h); 0.5 µM, read-out: % Inhibition",3%
same,inhibition at 10 µM,"LIMK1(h); 10 µM, read-out: % Inhibition",18%
same,inhibition at 0.5 µM,"CDK7/cyclinH/MAT1(h); 0.5 µM, read-out: % Inhibition",64%
same,inhibition at 10 µM,"CDK7/cyclinH/MAT1(h); 10 µM, read-out: % Inhibition",101%
same,inhibition at 0.5 µM,"CDK5/p35(h); 0.5 µM, read-out: % Inhibition",-14%
same,inhibition at 10 µM,"CDK5/p35(h); 10 µM, read-out: % Inhibition",32%
same,inhibition at 0.5 µM,"CK1γ3(h); 0.5 µM, read-out: % Inhibition",-14%
same,inhibition at 10 µM,"CK1γ3(h); 10 µM, read-out: % Inhibition",51%
same,inhibition at 0.5 µM,"SIK(h); 0.5 µM, read-out: % Inhibition",-4%
same,inhibition at 10 µM,"SIK(h); 10 µM, read-out: % Inhibition",64%
same,inhibition at 0.5 µM,"JAK3(h); 0.5 µM, read-out: % Inhibition",-6%
same,inhibition at 10 µM,"JAK3(h); 10 µM, read-out: % Inhibition",-14%
same,inhibition at 0.5 µM,"JAK2(h); 0.5 µM, read-out: % Inhibition",-13%
same,inhibition at 10 µM,"JAK2(h); 10 µM, read-out: % Inhibition",-27%
same,IC50,PKCα,> 1000 nM
same,inhibition at 0.5 µM,"CaMKIIγ(h); 0.5 µM, read-out: % Inhibition",48%
same,inhibition at 10 µM,"CaMKIIγ(h); 10 µM, read-out: % Inhibition",92%
same,inhibition at 0.5 µM,"CaMKIδ(h); 0.5 µM, read-out: % Inhibition",16%
same,inhibition at 10 µM,"CaMKIδ(h); 10 µM, read-out: % Inhibition",84%
same,inhibition at 0.5 µM,"Ret (V804L)(h); 0.5 µM, read-out: % Inhibition",4%
same,inhibition at 10 µM,"Ret (V804L)(h); 10 µM, read-out: % Inhibition",21%
same,inhibition at 0.5 µM,"PRK2(h); 0.5 µM, read-out: % Inhibition",81%
same,inhibition at 10 µM,"PRK2(h); 10 µM, read-out: % Inhibition",96%
same,inhibition at 0.5 µM,"SGK2(h); 0.5 µM, read-out: % Inhibition",67%
same,inhibition at 10 µM,"SGK2(h); 10 µM, read-out: % Inhibition",97%
